Test results as given in patent US5202355A, “Method of inhibiting aldose reductase in diabetic hosts using phenol derivatives” (Takasago Institute for Interdisciplinary Science Inc., priority 1991, dated 1993).
pIC50: −log10 of the molar value. Where two headings read alike, the source gives them in different places.

Key:
[1] = tested on: motor nerve conduction velocity (MNCV); conditions: short and long-term streptozotocin induced diabetes in rats; cited from earlier work
[2] = tested on: galactosemic cataract formation; conditions: experimental rats; cited from earlier work
[3] = tested on: peripheral nerve deterioration; conditions: diabetic patients suffering from peripheral nerve deterioration; cited from earlier work
aldose reductase = target: T1, aldose reductase (Bos taurus, UniProt P16116); experiment: Aldose reductase inhibition (percent inhibition of enzyme activity); type: biochemical, calf
T1 construct: The enzyme was isolated from the homogenized preparation by successive chromatography; from tissue; host or cells: calf eye lens
Experimental: The following phenols were tested for their ability to inhibit aldose reductase enzyme activity.
The assay was conducted essentially according to the procedure of S. Hayman, et al., as described in the Journal of Biological Chemistry, 240, 877 (1965).
The preparation of aldose reductase was conducted according to the procedure of K. Inagaki et al., ARchives of Biochemistry and Biophysics, 216, 337 (1982). Briefly, lenses were removed from calf eyes and homogenized. The enzyme was isolated from the homogenized preparation by successive chromatography on a DEAE-sephacel column (Pharmacia LKB Biotechnology, Piscataway, N.J.), an affinity column (Matrex gel red A; Amicon Co., Danvers, Mass.), and a Sephadex G-75 column (Pharmacia LKB Biotechnology, Piscataway, N.J.).
A reaction mixture of 0.1M sodium phosphate buffer (pH 6.2), 0.4M ammonium sulfate, 10 mm glyceraldehyde, 0.16 mm NADPH, and 10 ml propylene glycol solution containing the purified enzyme was prepared. The test compound was incubated with the enzyme in the reaction mixture.
Aldose reductase activity was assayed spectrophotometrically by determining the decrease in the NADPH concentration at 340 nm in a Beckman DU-64 spectrophotometer (Beckman, Palo Alto, Calif.).
The percent inhibition of each compound was calculated by comparing the reaction rate of the solution containing substrate and the compound at a given concentration with that of the control solution containing only substrate.

[4] = target: calf lens aldose reductase; conditions: cited from earlier work
[5] = 10^-6 M (× 3.8), read-out: Percent Inhibition (%)
[6] = 10^-6 M (× 7.5), read-out: Percent Inhibition (%)
[7] = 10^-6 M (× 1.9), read-out: Percent Inhibition (%)

| inhibition (aldose reductase; [5]) | inhibition (aldose reductase; [6]) | inhibition (aldose reductase; [7]) | SMILES | further results |
| --- | --- | --- | --- | --- |
| – | – | – | O=C(O)CN1C(=O)c2cccc3cccc(c23)C1=O [Alrestatin, 1,3-dioxo-1H-benz (de) isoquinoline-2(3H)-acetic acid] | motor nerve conduction velocity (MNCV) [1]: improve motor nerve conduction velocity (MNCV); galactosemic cataract formation [2]: successfully prevent galactosemic cataract formation; sugar polyol accumulations [2]: blocking the sugar polyol accumulations; improvement in diabetic patients [3]: no improvement was observed |
| 27% | 40% | – | CCCCCCCCCCCCCCCc1cccc(O)c1C(=O)O [Compound 1, 6-Pentadecylsalicylic Acid] | – |
| 42% | 91% | 9% | CCCCCC/C=C\CCCCCCCc1cccc(O)c1C(=O)O [Compound 2, 6-[8(z)-pentadecenyl]salicylic acid] | – |
| 18% | 91% | 1% | CCC/C=C\C/C=C\CCCCCCCc1cccc(O)c1C(=O)O [Compound 3, 6-[8(z),11(z)-pentadecadienyl]salicylic acid] | – |
| 60% | 77% | 47% | C=CC/C=C\C/C=C\CCCCCCCc1cccc(O)c1C(=O)O [Compound 4, 6-[8(z),11(z),14-pentadecatrienyl]salicylic acid] | – |
| 22% | 43% | – | CCC/C=C\C/C=C\CCCCCCCc1cc(O)c(C)c(O)c1 [Compound 11, 2-methyl-5-[8(z),11(z)-pentadecadienyl]resorcinol] | – |
| 28% | 53% | – | C=CC/C=C\C/C=C\CCCCCCCc1cc(O)c(C)c(O)c1 [Compound 12, 2-methyl-5-[8(z),11(z),14-pentadecatrienyl]resorcinol] | – |
| – | – | – | C=CC/C=C\C/C=C\CCCCCCCc1cc(O)cc(O)c1 [Compound 16, 5-[8(z),11(z),14-pentadecatrienyl]resorcinol] | inhibition (aldose reductase; read-out: Percent Inhibition (%), 10^-6 M (× 1.9)): 12%; inhibition (aldose reductase; read-out: Percent Inhibition (%), 10^-6 M (× 3.8)): 16%; inhibition (aldose reductase; read-out: Percent Inhibition (%), 10^-6 M (× 7.5)): 85% |
| – | – | – | O=C1NC(=O)[C@@]2(CCOc3ccc(F)cc32)N1 [sorbinil, d-6-fluoro-spiro [chroman-4,4'-imidazolidine]-2',5'-dione] | motor nerve conduction velocity (MNCV) [1]: improve motor nerve conduction velocity (MNCV); improvement in diabetic patients [3]: no beneficial effect was observed; pIC50 ([4]; calf lens aldose reductase, read-out: IC50 concentration): ~6.30; aldose reductase inhibitor potency (in words) [4]: one of the most potent inhibitors heretofore investigated |
